The source of these data is US20200165194A1, “ADDITIVE COMPOSITION FOR CULTURE MEDIUM, ADDITIVE COMPOUND FOR CULTURE MEDIUM, AND METHOD FOR CULTURE OF CELLS OR TISSUE USING SAME” (NISSAN CHEMICAL CORPORATION, priority 2017, published 2020).

Where two headings read alike, the source gives them in different places.

Assay type in all cases: cell-based
Series [1] relates to human alveolar basal epithelial adenocarcinoma-derived cell line A549. Kind of series: Various human cancer cells-2, 3D culture, ATP assay (Experimental Example 6). The note with it: 4 days; for viability at 5 µM / viability at 10 µM: Homo sapiens, A549, 96 h, read-out: number of viable cells (RLU), relative value to control (100%). The method, then:
(§1) Various human-derived cancer cells were precultured (single layer culture) in respective media shown below. […] The above-mentioned cells in the logarithmic growth phase were washed with PBS, a 0.25 w/v % trypsin-1 mmol/L EDTA (ethylenediaminetetraacetic acid) solution (manufactured by Wako Pure Chemical Industries, Ltd.) was added, and adherent cells were detached by incubating at 37° C. for 1-5 min. Each medium was added and the mixture was centrifuged. After resuspension in the same medium, each cell was recovered.
(§2) The aforementioned various cells were suspended in respective deacylated gellan gum-containing or not containing media (deacylated gellan gum concentration was 0.015 w/v %), and seeded in a 96 well low attachment U-bottom plate (manufactured by Corning, #4520, deacylated gellan gum-free medium), or a low attachment flat bottom plate (manufactured by Corning, #3474, deacylated gellan gum-containing medium) at a cell concentration of 700-12000 cells/90 μL/well (all 3D culture). […] The amount of each compound solution to be added was 10 μL/well. As a control, a DMSO solution dissolved in a medium was added (DMSO final concentration 0.1%). […] When compared with the compound no-addition (control), one showing a value of not more than 119% as -, one showing a value of not less than 120% as ◯, and one showing a value of not less than 150% as ⊚ are shown in the eleventh table and the twelfth table. Unperformed test is left blank.

For series [2], the system named is human ovarian cancer cell line SKOV3. Described as above. The following applies: 4 days; for viability at 5 µM / viability at 10 µM: Homo sapiens, SK-OV-3, 96 h, read-out: number of viable cells (RLU), relative value to control (100%). The method, then: as §1, §2
The subject of series [3] is a plurality of cancer cell lines. Kind of series: Various human cancer cells-2, summary over the cell lines (Experimental Example 6). The following applies: cancer cell lines under three-dimensional conditions. The method, then: as §1, §2
For series [4], the system named is Bone marrow-derived human mesenchymal stem cells (BM-hMSC). As to the kind of experiment: Human mesenchymal stem cell-2: 3D, EZSPHERE and 2D culture, ATP assay (Experimental Example 10). The following applies: for viability at 1 µM / viability at 5 µM / viability at 10 µM / viability at 20 µM: Homo sapiens, Mesenchymal stem cells, 96 h, BM-hMSC, 4 days, non-addition = 100%, read-out: relative value of RLU (number of viable cells). The method, then:
Bone marrow-derived human mesenchymal stem cells (BM-hMSC, manufactured by PromoCell) were precultured by a single layer culture method (2D) using a mesenchymal stem cell proliferation medium (manufactured by PromoCell). In three-dimensional culture method (3D), hMSC was suspended in a medium composition added with deacylated gellan gum, and seeded in a […] flat bottom Ultr-low Attachment surface plate (manufactured by Corning Incorporated, #3474) at 6000 cells/90 μL/well. In the three-dimensional culture method using EZSPHERE (EZSPHERE), hMSC was suspended in a deacylated gellan gum-free medium composition, and seeded in a 96-well EZSPHERE plate (manufactured by AGC TECHNO GLASS CO., LTD., #4860-900) at 2000 cells/90 μL/well. In 2D, hMSC was suspended in a deacylated gellan gum-free medium composition, and seeded in a 96-well flat bottom plate (manufactured by Corning Incorporated, #3585) at 2000 cells/90 μL/well. […] As a control, DMSO was added at a final concentration of 0.1%.

Series [5] deals with plural animal cell lines. As to the kind of experiment: Animal cell lines, summary over the cell lines (Experimental Example 15). The following applies: animal cell lines under three-dimensional conditions. An excerpt: Various animal cell lines were precultured (single layer culture) as follows in respective media. Chinese hamster ovary-derived cell line CHO-K1 (manufactured by DS PHARMA BIO MEDICAL, 10% fetal bovine serum (FBS, manufactured by Corning)-containing Ham's F-12 medium (manufactured by Fujifilm Wako Pure Chemical Corporation)), Cercopithecus aethiops kidney epithelium-derived cell line Vero (purchased from JCRB cell bank, 5% FBS-containing Medium 199 medium (manufactured by Life Technologies)). The above-mentioned cells in the logarithmic growth phase were washed with PBS, a 0.25 w/v % trypsin-1 mmol/L EDTA (ethylenediaminetetraacetic acid) solution (manufactured by Fujifilm Wako Pure Chemical Corporation) was added, and adherent cells were detached by incubating at 37° C. for 3 min. Each medium was added and the mixture was centrifuged and resuspended in the same medium.
The aforementioned various animal cells were suspended in respective deacylated gellan gum-containing or not containing media (deacylated gellan gum concentration was 0.02 w/v % in Ham's F-12 medium, 0.015 w/v % in Medium 199 medium), and seeded in a 96 well low attachment U-bottom plate (manufactured by Corning, #4520, deacylated gellan gum-free medium), or a low attachment flat bottom plate (manufactured by Corning, #3474, deacylated gellan gum-containing medium) at a cell concentration of 700-2000 cells/90 μL/well (all 3D culture). […] The amount of each compound solution to be added was […]. As a control, a DMSO solution dissolved in a medium was added (DMSO final concentration 0.1%). […] When compared with the compound non-addition (control), one showing a value of not more than 119% as -, one showing a value of not less than 120% as ◯, and one showing a value of not less than 150% as ⊚ are shown in the twenty-third table and the twenty-fourth table.

Setting [6] is: low attachment U-bottom plate, 5 μM.
Setting [7] is: low attachment U-bottom plate, 10 μM.
The mark [8] stands for this setting: low attachment flat bottom plate (gellan gum medium), 5 μM.
Where [9] appears, read: low attachment flat bottom plate (gellan gum medium), 10 μM.
[10] abbreviates: three-dimensional cell culture conditions.

In the case of `CC/C(=N\NC(=O)C(C)Nc1ccccc1)c1ccc(O)c(C)c1O` (centres unmarked) [k-1:B-1], the “number of viable cells (RLU), relative value to control (100%)” value (shortened to “number … relative value to control (100%)”) in series [1] (setting [6]), in series [1] (setting [7]), in series [1] (setting [8]), in series [1] (setting [9]), in series [2] (setting [6]) and in series [2] (setting [7]) was “⊙” throughout. Further, the “number … relative value to control (100%)” value in series [2] (setting [8]) and in series [2] (setting [9]) was “⊙” in each case. The “proliferation activity (in words)” value was “promoted proliferation activity in a plurality of cancer cell lines” in series [3], “promoted proliferation activity of BM-hMSC” in series [4] (setting [10]), “promoted proliferation activity of hMSC” in series [4] (two-dimensional cell culture conditions) and “promoted proliferation activity in plural animal cell lines” in series [5]. The viability at 1 µM in series [4] (2D) came to 109%; in series [4] (3D (deacylated gellan gum)), 139%; in series [4] (EZSPHERE plate) it was 154%. The values for the viability at 5 µM in series [4] (2D), in series [4] (3D (deacylated gellan gum)) and in series [4] (EZSPHERE plate) were 125%, 298% and 247%, respectively. Moreover, the viability at 10 µM is 158% in series [4] (2D), 418% in series [4] (3D (deacylated gellan gum)) and 297% in series [4] (EZSPHERE plate). Further, the viability at 20 µM in series [4] (2D) was found to be 164%; in series [4] (3D (deacylated gellan gum)), 420%; in series [4] (EZSPHERE plate), 278%.

Regarding `CC/C(=N\NC(=O)CNc1cccc(O)c1)c1ccc(O)c(C)c1O` [k-1:D-1], the “number … relative value to control (100%)” value in series [1] (setting [6]), in series [1] (setting [7]), in series [1] (setting [8]), in series [1] (setting [9]), in series [2] (setting [6]) and in series [2] (setting [7]) was “⊙” in each case. In addition, the “number … relative value to control (100%)” value in series [2] (setting [8]) and in series [2] (setting [9]) was “⊙” each time. In addition, the “proliferation activity (in words)” value was “promoted proliferation activity in a plurality of cancer cell lines” in series [3], “promoted proliferation activity of BM-hMSC” in series [4] (setting [10]) and “promoted proliferation activity in plural animal cell lines” in series [5]. The viability at 1 µM turned out to be 111% in series [4] (2D), 170% in series [4] (3D (deacylated gellan gum)) and 169% in series [4] (EZSPHERE plate). The viability at 5 µM in series [4] (2D) was 125%; in series [4] (3D (deacylated gellan gum)) it was 640%; in series [4] (EZSPHERE plate), 310%. Besides, the viability at 10 µM in series [4] (2D) was 112%; in series [4] (3D (deacylated gellan gum)) it was 771%; in series [4] (EZSPHERE plate), 339%. In addition, the figures for the viability at 20 µM in series [4] (2D), in series [4] (3D (deacylated gellan gum)) and in series [4] (EZSPHERE plate) were 92%, 688% and 275%, respectively.

As for `CCC(=NNC(=O)C(CC)Nc1ccccc1)c1ccc(O)c(C)c1O` (centres unmarked) [k-1:H-7], in series [5], the “proliferation activity (in words)” value is listed as “promoted proliferation activity in plural animal cell lines”.

Consider `CC/C(=N\NC(=O)NCc1ccccc1)c1ccc(O)c(C)c1O` [k-1:I-1], for which the viability at 5 µM was below 119% in series [1] (setting [6]); below 119% in series [1] (setting [8]); 120 to 150% in series [2] (setting [6]); below 119% in series [2] (setting [8]); 98% in series [4] (2D); 123% in series [4] (3D (deacylated gellan gum)). For the same compound, the viability at 5 µM in series [4] (EZSPHERE plate) came to 120%. Moreover, the viability at 10 µM in series [1] (setting [7]) was below 119%; in series [1] (setting [9]), 120 to 150%; in series [2] (setting [7]), 120 to 150%; in series [2] (setting [9]), 120 to 150%; in series [4] (2D) it was 104%; in series [4] (3D (deacylated gellan gum)), 150%. The viability at 10 µM in series [4] (EZSPHERE plate) was found to be 144%. The figures for the “proliferation activity (in words)” value in series [3], in series [4] (setting [10]) and in series [5] were “promoted proliferation activity in a plurality of cancer cell lines”, “promoted proliferation activity of BM-hMSC” and “promoted proliferation activity in plural animal cell lines”, respectively. The values for the viability at 1 µM in series [4] (2D), in series [4] (3D (deacylated gellan gum)) and in series [4] (EZSPHERE plate) were 107%, 100% and 101%, respectively. In addition, the viability at 20 µM in series [4] (2D) amounted to 107%; in series [4] (3D (deacylated gellan gum)) it was 177%; in series [4] (EZSPHERE plate), 163%.
